In PubChem BioAssay (NCI):
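Briefly, cells in 96-well plates were exposed to five compound concentrations for 48 h, and endpoints were estimated by linear interpolation. The concentration for full growth arrest is given as TGI.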

Tests used:
Assay in all cases: NCI-60 cell line screen, 48 h
SF-295 CNS = system: SF-295 CNS
SK-MEL-2 melanoma = system: SK-MEL-2 melanoma
OVCAR-5 ovarian = system: OVCAR-5 ovarian
UACC-62 melanoma = system: UACC-62 melanoma
IGROV1 ovarian = system: IGROV1 ovarian
BT-549 breast = system: BT-549 breast
EKVX NSCLC = system: EKVX NSCLC
HOP-92 NSCLC = system: HOP-92 NSCLC
MOLT-4 leukemia = system: MOLT-4 leukemia
NCI-H460 lung = system: NCI-H460 lung
SN12C renal = system: SN12C renal
RPMI-8226 leukemia = system: RPMI-8226 leukemia
K-562 leukemia = system: K-562 leukemia
MALME-3M melanoma = system: MALME-3M melanoma
DU-145 prostate = system: DU-145 prostate
A498 renal = system: A498 renal
MDA-MB-435 = system: MDA-MB-435
M14 melanoma = system: M14 melanoma
UO-31 renal = system: UO-31 renal
SK-OV-3 ovarian = system: SK-OV-3 ovarian
HCT-116 colon = system: HCT-116 colon
SW-620 colon = system: SW-620 colon
NCI-H226 lung = system: NCI-H226 lung
NCI-H522 lung = system: NCI-H522 lung
OVCAR-8 ovarian = system: OVCAR-8 ovarian
SK-MEL-28 melanoma = system: SK-MEL-28 melanoma
HT29 colon = system: HT29 colon
TK-10 renal = system: TK-10 renal
A549 NSCLC = system: A549 NSCLC
OVCAR-4 ovarian = system: OVCAR-4 ovarian
KM12 colon = system: KM12 colon
ACHN renal = system: ACHN renal
HCC-2998 colon = system: HCC-2998 colon
MCF7 breast = system: MCF7 breast
SF-539 CNS = system: SF-539 CNS
UACC-257 melanoma = system: UACC-257 melanoma
HOP-62 NSCLC = system: HOP-62 NSCLC
MDA-MB-231 breast = system: MDA-MB-231 breast
RXF 393 renal = system: RXF 393 renal
SNB-75 CNS = system: SNB-75 CNS
CAKI-1 renal = system: CAKI-1 renal
HL-60(TB) leukemia = system: HL-60(TB) leukemia
SNB-19 CNS = system: SNB-19 CNS
NCI-H23 lung = system: NCI-H23 lung
NCI/ADR-RES ovarian = system: NCI/ADR-RES ovarian
MDA-N = system: MDA-N
HCT-15 colon = system: HCT-15 colon
PC-3 prostate = system: PC-3 prostate
U251 CNS = system: U251 CNS
HS 578T breast = system: HS 578T breast
SK-MEL-5 melanoma = system: SK-MEL-5 melanoma

With `CCOc1ccc2nc3cc(N=Nc4ccc(N)nc4N)ccc3c(N)c2c1` the TGI (SF-295 CNS) was 63.4 µM, the TGI (SK-MEL-2 melanoma) was 4.66 µM and the TGI (OVCAR-5 ovarian) was 41.7 µM. It also gave a TGI (UACC-62 melanoma) of 33.7 µM, a TGI (IGROV1 ovarian) greater than 69.6 µM and a TGI (BT-549 breast) of 31.4 µM. It also gave a TGI (EKVX NSCLC) of 45.3 µM, a TGI (HOP-92 NSCLC) of 40.1 µM and a TGI (MOLT-4 leukemia) of 4.83 µM. The TGI (NCI-H460 lung) was 57.6 µM, the TGI (SN12C renal) was 6.38 µM and the TGI (RPMI-8226 leukemia) was 61.6 µM. For the same compound, the TGI (K-562 leukemia) was 1.67 µM, the TGI (MALME-3M melanoma) was 21 µM and the TGI (DU-145 prostate) was 26.8 µM. It also gave a TGI (A498 renal) of 28.1 µM, a TGI (MDA-MB-435) greater than 100 µM and a TGI (M14 melanoma) of 51.5 µM. For the same compound, the TGI (UO-31 renal) was greater than 66.3 µM, the TGI (SK-OV-3 ovarian) was greater than 30.3 µM and the TGI (HCT-116 colon) was 7.8 µM. It also gave a TGI (SW-620 colon) greater than 34.9 µM, a TGI (NCI-H226 lung) of 59.4 µM and a TGI (NCI-H522 lung) of 8.71 µM. For the same compound, the TGI (OVCAR-8 ovarian) was 34.3 µM, the TGI (SK-MEL-28 melanoma) was 47.2 µM and the TGI (HT29 colon) was 14 µM. The TGI (TK-10 renal) was 28.6 µM, the TGI (A549 NSCLC) was greater than 47.9 µM and the TGI (OVCAR-4 ovarian) was greater than 78.6 µM. For the same compound, the TGI (KM12 colon) was greater than 100 µM, the TGI (ACHN renal) was 33.9 µM and the TGI (HCC-2998 colon) was 4.35 µM. For the same compound, the TGI (MCF7 breast) was 12.2 µM, the TGI (SF-539 CNS) was 4.11 µM and the TGI (UACC-257 melanoma) was 57.1 µM. The TGI (HOP-62 NSCLC) was greater than 100 µM, the TGI (MDA-MB-231 breast) was 2.92 µM and the TGI (RXF 393 renal) was 10 µM. It also gave a TGI (SNB-75 CNS) of 5.11 µM, a TGI (CAKI-1 renal) greater than 100 µM and a TGI (HL-60(TB) leukemia) of 10.1 µM. For the same compound, the TGI (SNB-19 CNS) was 3.08 µM, the TGI (NCI-H23 lung) was 21.9 µM and the TGI (NCI/ADR-RES ovarian) was greater than 100 µM. The TGI (MDA-N) was 4.99 µM, the TGI (HCT-15 colon) was greater than 100 µM and the TGI (PC-3 prostate) was 13.5 µM. The TGI (U251 CNS) was 1.93 µM, the TGI (HS 578T breast) was 15.2 µM and the TGI (SK-MEL-5 melanoma) was 55.2 µM.
